Results: patent publication US5128242A, “Hypothalamic polypeptides with adenylate cyclase stimulating activity” (The Administrators of the Tulane Educational Fund, priority 1989, dated 1992)
Entries after “also recorded” stand apart in the source; their conditions may differ. Ends that are not written are not given here.

Experiments:
[1] = test system: rat pituitary cell cultures; experiment: Intracellular cAMP accumulation in cultured pituitary cells; type: cell-based; conditions: temporal changes, concentration not given
From the text: FIG. 6a. Intracellular cAMP accumulation in cultured pituitary cells.
We also determined temporal changes in intracellular cAMP levels in rat pituitary cell cultures.

adenylate cyclase = conditions: rat pituitary cell cultures
Procedure: Primary monolayer rat anterior pituitary cell culture was prepared as described previously (Culler et al., 1984). Anterior pituitaries from CD strain female rats of approximately 200 g bw (Charles River Breeding Labs, Wilmington, Mass.) at a random stage of estrous cycle were enzymatically dispersed with collagenase Type II and DNAse II. Dispersed cells were collected by centrifugation and washed three times with HEPES buffer and finally suspended in Dulbecco,s modified Eagle's medium (DMEM) containing 10% horse serum, 2.5% fetal calf serum and 1% antibiotic antimycotic solution (Gibco/Life Technologies, Grand Isle, NY) The cells are plated in 24-multiwell tissue culture plates (Falcon, Oxnard, Calif.) at a density of 1.5×10^5 cells/ml/well, and then incubated at 37° C. in a water-saturated atmosphere of 95% air 5% CO2 for 4 days. Prior to acute stimulation, cultured cells were incubated for 3 hr in serum-free DMEM with two changes of the medium. The cells were then incubated for 3 hr in 0.5 ml of HEPES-buffered DMEM containing test materials. Ascorbic acid (2.5×10^-4 M) and 0.25% BSA were routinely added to the medium during assay incubation in order to prevent possible oxidation and adsorption of test samples. […]
Cyclic AMP in the culture media was determined by RIA as described by Harper and Brooker (J. Cyclic Nucleo. Res. 1:207, 1975). […]

arterial blood pressure = experiment: Determination of depressor activity (arterial blood pressure) in urethane-anesthetized rats; type: in vivo, rat; conditions: for vasodepressor activity: urethane-anaesthetized rats, dose range 0.33 nmole to 1.0 nmole
Procedure: Arterial blood pressure was measured in urethane (150 mg/100 g ip) anesthetized adult male rats. Polyethylene tubing (PE50) which was connected with a pressure transducer P-1000 B (Narco Bio-Systems) was inserted into the femoral artery. Blood pressure was recorded using Narcotrace 40. Another polyethylene tube (PE50) was inserted into a femoral vein for injection of test materials dissolved in 0.5 ml 0.9% saline.

neurons [2] = experiment: Intracellular cAMP accumulation in cultured neurons; type: cell-based, rat; conditions: for intracellular cAMP response in neurons: 10^-9 M added to culture medium
Procedure: FIG. 6c. Intracellular cAMP accumulation in cultured neurons.
(§1) For studies on neurons, rat neuronal cell cultures were prepared by the method described by Raizada et al. (Raizada et al. Am. J. Physiol. 247:C364, 1984). Astrocyte cultures were prepared using the single-step transfer method as described by Clarke et al. (Clark et al., J. Biol. Chem. 259:11672, 1984). […] Intracellular cAMP levels remained elevated for at least 60 minutes in astrocytes, but began to decrease after 10 min in neurons.

astrocytes = experiment: Intracellular cAMP accumulation in cultured astrocytes; type: cell-based, rat; conditions: for intracellular cAMP response in astrocytes: 10^-9 M added to culture medium
Procedure: FIG. 6b. Intracellular cAMP accumulation in cultured astrocytes.
as §1

[3] = test system: superfused pituitary cells; experiment: Superfusion method using rat pituitary cell column: release of pituitary hormones; type: cell-based
Procedure: FIGS. 5A-5D. The effect of synthetic PACAP38 on the release of pituitary hormones from superfused pituitary cells. A pituitary cell superfusion method to determine the hypophysiotropic activity of samples was conducted as reported by Vigh and Schally. The peptide was applied as a 3 min pulse. The numbers at top indicate; 1,7: 100 mM KCl, 2: 10^-10 M PACAP38, 3: 10^-9 M PACAP38, 4: 10^-8 M PACAP38, 5: 10^-7 M PACAP38, 6: 10^-6 M PACAP38. 0.9 ml fractions were collected every 3 min.
A pituitary cell superfusion method to determine the hypophysiotropic activity of samples was conducted as reported by Vigh and Schally (1984). Pituitaries obtained from 3 adult female rats were cut into small pieces and incubated in a Dubnoff incubator for 45 min at 37° C. in 10 ml of oxygenated Medium 199 (Gibco/Life Technologies) containing 0.5% collagenase (Sigma Type I), 0.25% BSA and […] gentamicin sulphate (Sigma). After this incubation, there were no apparent changes in the pituitary tissue, but the fragments could be easily dispersed into single cells by repeated suction and expulsion from a Pasteur pipet. After 30 to 60 pipet operations, the tissue fell apart. The cell suspension was centrifuged at room temperature for 10 min at 100×g. The cell pellet was then resuspended in 1.0 ml medium. A small aliquot was diluted to count the cells, and the remainder of the suspension was divided into 2 equal volumes. Each volume (containing about 5×10^6 cells and usually between 3.5 and 7.0×10^6) was mixed with 0.5 ml Sephadex G-15 which had been equilibrated with previously oxygenated medium. The mixture of pituitary cells and Sephadex was transferred into 2 chambers of the superfusion apparatus and perfused with the medium. The medium was always freshly prepared in a way similar to that for enzymatic dispersion, omitting the collagenase, then passed through a Millipore filter, and continuously gassed with a mixture of O2 (95%) and CO2 (5%) during the experiment. The flow rate of the medium through the superfusion system was controlled by a multichannel pump (Gilson Minipulse Type HP-8) which was placed behind the superfusion chamber; the tuning of the lower plunger was connected to the pump, and from there to a two-channel fraction collector. Thus, the system was operated with negative pressure in order to get fewer fluctuations in the flow rate. Samples were applied as a 3 min pulse followed by the medium superfusion. Superfusate was collected as 3 min fractions, 0.9 ml per fraction.

rat pituitary fragments = conditions: in vitro; Arimura et al. 1984; cited from earlier work
neurons [4] = conditions: De Brenneman et al. 1987, 1988; cited from earlier work
[5] = superfused rat pituitary cells, hormone release

Compound: CC[C@H](C)[C@H](NC(=O)CNC(=O)[C@H](CC(=O)O)NC(=O)[C@H](CO)NC(=O)[C@@H](N)Cc1c[nH]cn1)C(=O)N[C@@H](Cc1ccccc1)C(=O)N[C@H](C(=O)N[C@@H](CC(=O)O)C(=O)N[C@@H](CO)C(=O)N[C@@H](Cc1ccc(O)cc1)C(=O)N[C@@H](CO)C(=O)N[C@@H](CCCNC(=N)N)C(=O)N[C@@H](Cc1ccc(O)cc1)C(=O)N[C@@H](CCCNC(=N)N)C(=O)N[C@@H](CCCCN)C(=O)N[C@@H](CCC(N)=O)C(=O)N[C@@H](CCSC)C(=O)N[C@@H](C)C(=O)N[C@H](C(=O)N[C@@H](CCCCN)C(=O)N[C@@H](CCCCN)C(=O)N[C@@H](Cc1ccc(O)cc1)C(=O)N[C@@H](CC(C)C)C(=O)N[C@@H](C)C(=O)N[C@@H](C)C(=O)N[C@H](C(=O)N[C@@H](CC(C)C)C(N)=O)C(C)C)C(C)C)[C@@H](C)O [PACAP27NH2]
- intracellular cAMP accumulation (extent and pattern) [1]: comparable extent and pattern of cAMP accumulation
- ACSA activity compared with native PACAP38 (adenylate cyclase; cAMP in medium after 3 hr incubation): similar, if not greater

Compound: CC[C@H](C)[C@H](NC(=O)CNC(=O)[C@H](CC(=O)O)NC(=O)[C@H](CO)NC(=O)[C@@H](N)Cc1c[nH]cn1)C(=O)N[C@@H](Cc1ccccc1)C(=O)N[C@H](C(=O)N[C@@H](CC(=O)O)C(=O)N[C@@H](CO)C(=O)N[C@@H](Cc1ccc(O)cc1)C(=O)N[C@@H](CO)C(=O)N[C@@H](CCCNC(=N)N)C(=O)N[C@@H](Cc1ccc(O)cc1)C(=O)N[C@@H](CCCNC(=N)N)C(=O)N[C@@H](CCCCN)C(=O)N[C@@H](CCC(N)=O)C(=O)N[C@@H](CCSC)C(=O)N[C@@H](C)C(=O)N[C@H](C(=O)N[C@@H](CCCCN)C(=O)N[C@@H](CCCCN)C(=O)N[C@@H](Cc1ccc(O)cc1)C(=O)N[C@@H](CC(C)C)C(=O)N[C@@H](C)C(=O)N[C@@H](C)C(=O)N[C@H](C(=O)N[C@@H](CC(C)C)C(=O)NCC(=O)N[C@@H](CCCCN)C(=O)N[C@@H](CCCNC(=N)N)C(=O)N[C@@H](Cc1ccc(O)cc1)C(=O)N[C@@H](CCCCN)C(=O)N[C@@H](CCC(N)=O)C(=O)N[C@@H](CCCNC(=N)N)C(=O)N[C@H](C(=O)N[C@@H](CCCCN)C(=O)N[C@@H](CC(N)=O)C(=O)N[C@@H](CCCCN)C(N)=O)C(C)C)C(C)C)C(C)C)[C@@H](C)O [PACAP38]
- depressor activity (arterial blood pressure; anesthetized rats, injection into femoral vein): significant, but somewhat weaker
- vasodepressor activity (arterial blood pressure): comparable vasodepressor activity
- intracellular cAMP accumulation (extent and pattern) [1]: comparable extent and pattern of cAMP accumulation
- time after which intracellular cAMP began to decrease, neurons (neurons [2]; 10^-9 M): 10 min
- time of first cAMP increase after addition, neurons (neurons [2]; 10^-9 M): as early as one minute
- intracellular cAMP response in neurons (neurons [2]): increased intracellular cAMP
- time intracellular cAMP levels remained elevated, astrocytes (astrocytes; 10^-9 M): at least 60 minutes
- time of first cAMP increase after addition, astrocytes (astrocytes; 10^-9 M): as early as one minute
- intracellular cAMP response in astrocytes (astrocytes): extraordinarily large
- FSH release ([3]; 3 min pulse, 10^-10 to 10^-6 M): not altered; also recorded: not apparent
- LH release ([3]; 3 min pulse, 10^-10 to 10^-6 M): LH response was linear
- TSH release ([3]; 3 min pulse, 10^-10 to 10^-6 M): not altered; also recorded: not apparent
- dose of maximum effect (bell-shaped dose response curve) [3, 5]: 10^-8 M
- minimum effective dose [3, 5]: 10^-10 M
- adenylate cyclase stimulating activity relative to VIP (adenylate cyclase; fold of VIP): at least 100 times

Compound: CRH: known hypothalamic releasing hormone (corticotropic releasing hormone) used for comparison (SEEPPISLDLTFHLLREVLEMARAEQLAQQAHSNRKLMEII; ends and bridges not checked; UniProt P06850 154-194, looked up)
- intracellular cAMP accumulation (extent and pattern) [1]: comparable extent and pattern of cAMP accumulation

Compound: HP: ovine hypothalamic peptide, partial N-terminal sequence His-Ser-Asp-Gly-Ile-Phe-Thr-Asp-Ser-Tyr-Lys-Arg-Tyr-Asn-Lys-Glu-Met-Ala-Lys- (HSDGIFTDSYKRYNKEMAK; printed: His-Ser-Asp-Gly-Ile-Phe-Thr-Asp-Ser-Tyr-Lys-Arg-Tyr-Asn-Lys-Glu-Met-Ala-Lys-)
- GH release from rat pituitary fragments (rat pituitary fragments): stimulated GH release

Compound: growth hormone releasing hormone (YADAIFTNSYRKVLGQLSARKLLQDIMSRQQGESNQERGARARL; ends and bridges not checked; UniProt P01286 32-75, looked up) [GRH]
- intracellular cAMP accumulation (extent and pattern) [1]: greatest accumulation of intracellular cAMP

Compound: vasoactive intestinal peptide [VIP, reference compound]
- vasodepressor activity (arterial blood pressure): comparable vasodepressor activity
- intracellular cAMP accumulation (extent and pattern) [1]: little effect
- intracellular cAMP response in neurons (neurons [2]): did not induce an appreciable stimulation of cAMP
- intracellular cAMP response in astrocytes (astrocytes): did not induce an appreciable stimulation of cAMP
- protection of neurons from gp120-induced cell death (neurons [4]): capable of protecting neurons from cell death
